ChEMBL document CHEMBL3232809, “Synthesis, antibiotic activity and structure-activity relationship study of some 3-enaminetetramic acids” (2014)
In brackets after ≈: the same amount, converted by molar mass.

What follows are compounds tested on Streptococcus pneumoniae (assay: Antimicrobial activity against penicillin- and erythromycin-resistant Streptococcus pneumoniae).
Type: functional
For `CCCCCCCCC/C(NC(C)CCCN(CC)CC)=C1/C(=O)N2[C@@H](C(C)(C)C)OC[C@]2(C(=O)OC)C1=O` (stereo not given in full), the MIC was 4 µg/mL (≈ 7.28 µM). For `CCOC(=O)[C@]12CO[C@H](C(C)(C)C)N1C(=O)/C(=C(/CC13CC4CC(CC(C4)C1)C3)NC(C)CCCN(CC)CC)C2=O` (stereo not given in full), the MIC was 16 µg/mL (≈ 27.3 µM). Work on `CCOC(=O)[C@]12CO[C@H](C(C)(C)C)N1C(=O)/C(=C(/CC13CC4CC(CC(C4)C1)C3)NCCCN1CCOCC1)C2=O` yielded an MIC greater than 64 µg/mL.

The compounds below were run on Streptococcus pneumoniae (assay: Antimicrobial activity against penicillin- and erythromycin-resistant Streptococcus pneumoniae in presence of 2.5% horse blood).
Type: functional
`CCCCCCCCC/C(NC(C)CCCN(CC)CC)=C1/C(=O)N2[C@@H](C(C)(C)C)OC[C@]2(C(=O)OC)C1=O` (stereo not given in full) was tested, and the MIC was 16 µg/mL. For `CCOC(=O)[C@]12CO[C@H](C(C)(C)C)N1C(=O)/C(=C(/CC13CC4CC(CC(C4)C1)C3)NC(C)CCCN(CC)CC)C2=O` (stereo not given in full), the MIC was 32 µg/mL. Compound `CCOC(=O)[C@]12CO[C@H](C(C)(C)C)N1C(=O)/C(=C(/CC13CC4CC(CC(C4)C1)C3)NCCCN1CCOCC1)C2=O` has an MIC greater than 64 µg/mL.

These compounds were tested on Staphylococcus aureus (assay: Antimicrobial activity against methicillin-sensitive Staphylococcus aureus ATCC 13709).
Type: functional
Work on `CCCCCCCCC/C(NC(C)CCCN(CC)CC)=C1/C(=O)N2[C@@H](C(C)(C)C)OC[C@]2(C(=O)OC)C1=O` (stereo not given in full) yielded an MIC of 16 µg/mL (≈ 29.1 µM). Work on `CCOC(=O)[C@]12CO[C@H](C(C)(C)C)N1C(=O)/C(=C(/CC13CC4CC(CC(C4)C1)C3)NC(C)CCCN(CC)CC)C2=O` (stereo not given in full) yielded an MIC of 32 µg/mL (≈ 54.6 µM). `CCOC(=O)[C@]12CO[C@H](C(C)(C)C)N1C(=O)/C(=C(/CC13CC4CC(CC(C4)C1)C3)NCCCN1CCOCC1)C2=O` gave an MIC greater than 64 µg/mL.

Each compound was assayed on Staphylococcus aureus (assay: Antimicrobial activity against vancomycin-susceptible Staphylococcus aureus ATCC 25923).
Type: functional
Compound `CCCCCCCCC/C(NC(C)CCCN(CC)CC)=C1/C(=O)N2[C@@H](C(C)(C)C)OC[C@]2(C(=O)OC)C1=O` (stereo not given in full) has an MIC of 16 µg/mL (≈ 29.1 µM). For `CCOC(=O)[C@]12CO[C@H](C(C)(C)C)N1C(=O)/C(=C(/CC13CC4CC(CC(C4)C1)C3)NC(C)CCCN(CC)CC)C2=O` (stereo not given in full), the MIC was 64 µg/mL (≈ 109 µM). `CCOC(=O)[C@]12CO[C@H](C(C)(C)C)N1C(=O)/C(=C(/CC13CC4CC(CC(C4)C1)C3)NCCCN1CCOCC1)C2=O` showed an MIC greater than 64 µg/mL.

What follows are compounds tested on Staphylococcus aureus (assay: Antimicrobial activity against Staphylococcus aureus Oxford).
Type: functional
`CCCCCCCCC/C(NC(C)CCCN(CC)CC)=C1/C(=O)N2[C@@H](C(C)(C)C)OC[C@]2(C(=O)OC)C1=O` (stereo not given in full) showed an MIC of 16 µg/mL (≈ 29.1 µM). Work on `CCOC(=O)[C@]12CO[C@H](C(C)(C)C)N1C(=O)/C(=C(/CC13CC4CC(CC(C4)C1)C3)NC(C)CCCN(CC)CC)C2=O` (stereo not given in full) yielded an MIC of 32 µg/mL (≈ 54.6 µM). `CCOC(=O)[C@]12CO[C@H](C(C)(C)C)N1C(=O)/C(=C(/CC13CC4CC(CC(C4)C1)C3)NCCCN1CCOCC1)C2=O` gave an MIC greater than 64 µg/mL.

The compounds below were run on Staphylococcus aureus (assay: Antimicrobial activity against methicillin-resistant Staphylococcus aureus).
Type: functional
In the case of `CCCCCCCCC/C(NC(C)CCCN(CC)CC)=C1/C(=O)N2[C@@H](C(C)(C)C)OC[C@]2(C(=O)OC)C1=O` (stereo not given in full), the MIC was 16 µg/mL (≈ 29.1 µM). `CCOC(=O)[C@]12CO[C@H](C(C)(C)C)N1C(=O)/C(=C(/CC13CC4CC(CC(C4)C1)C3)NC(C)CCCN(CC)CC)C2=O` (stereo not given in full) was tested, and the MIC was 64 µg/mL (≈ 109 µM). `CCOC(=O)[C@]12CO[C@H](C(C)(C)C)N1C(=O)/C(=C(/CC13CC4CC(CC(C4)C1)C3)NCCCN1CCOCC1)C2=O` was tested, and the MIC was greater than 64 µg/mL.

What follows are compounds tested on Enterococcus faecalis (assay: Antimicrobial activity against vancomycin-susceptible Enterococcus faecalis ATCC 29212).
Type: functional
Work on `CCCCCCCCC/C(NC(C)CCCN(CC)CC)=C1/C(=O)N2[C@@H](C(C)(C)C)OC[C@]2(C(=O)OC)C1=O` (stereo not given in full) yielded an MIC of 16 µg/mL (≈ 29.1 µM). Work on `CCOC(=O)[C@]12CO[C@H](C(C)(C)C)N1C(=O)/C(=C(/CC13CC4CC(CC(C4)C1)C3)NC(C)CCCN(CC)CC)C2=O` (stereo not given in full) yielded an MIC of 32 µg/mL (≈ 54.6 µM). For `CCOC(=O)[C@]12CO[C@H](C(C)(C)C)N1C(=O)/C(=C(/CC13CC4CC(CC(C4)C1)C3)NCCCN1CCOCC1)C2=O`, the MIC was greater than 64 µg/mL.

Each compound was assayed on Enterococcus faecium (assay: Antimicrobial activity against vancomycin-resistant Enterococcus faecium).
Type: functional
Compound `CCCCCCCCC/C(NC(C)CCCN(CC)CC)=C1/C(=O)N2[C@@H](C(C)(C)C)OC[C@]2(C(=O)OC)C1=O` (stereo not given in full) has an MIC of 8 µg/mL (≈ 14.6 µM). With `CCOC(=O)[C@]12CO[C@H](C(C)(C)C)N1C(=O)/C(=C(/CC13CC4CC(CC(C4)C1)C3)NC(C)CCCN(CC)CC)C2=O` (stereo not given in full) the MIC was 32 µg/mL (≈ 54.6 µM). `CCOC(=O)[C@]12CO[C@H](C(C)(C)C)N1C(=O)/C(=C(/CC13CC4CC(CC(C4)C1)C3)NCCCN1CCOCC1)C2=O` gave an MIC greater than 64 µg/mL.

What follows are compounds tested on Streptococcus pneumoniae (assay: Antimicrobial activity against erythromycin-susceptible Streptococcus pneumoniae ATCC 49619).
Type: functional
`CCCCCCCCC/C(NC(C)CCCN(CC)CC)=C1/C(=O)N2[C@@H](C(C)(C)C)OC[C@]2(C(=O)OC)C1=O` (stereo not given in full) gave an MIC of 4 µg/mL (≈ 7.28 µM). In the case of `CCOC(=O)[C@]12CO[C@H](C(C)(C)C)N1C(=O)/C(=C(/CC13CC4CC(CC(C4)C1)C3)NC(C)CCCN(CC)CC)C2=O` (stereo not given in full), the MIC was 32 µg/mL (≈ 54.6 µM). With `CCOC(=O)[C@]12CO[C@H](C(C)(C)C)N1C(=O)/C(=C(/CC13CC4CC(CC(C4)C1)C3)NCCCN1CCOCC1)C2=O` the MIC was greater than 64 µg/mL.

The compounds below were run on Haemophilus influenzae (assay: Antimicrobial activity against Haemophilus influenzae ATCC 31517 MMSA).
Type: functional
`CCCCCCCCC/C(NC(C)CCCN(CC)CC)=C1/C(=O)N2[C@@H](C(C)(C)C)OC[C@]2(C(=O)OC)C1=O` (stereo not given in full) showed an MIC greater than 64 µg/mL. With `CCOC(=O)[C@]12CO[C@H](C(C)(C)C)N1C(=O)/C(=C(/CC13CC4CC(CC(C4)C1)C3)NC(C)CCCN(CC)CC)C2=O` (stereo not given in full) the MIC was greater than 64 µg/mL. Work on `CCOC(=O)[C@]12CO[C@H](C(C)(C)C)N1C(=O)/C(=C(/CC13CC4CC(CC(C4)C1)C3)NCCCN1CCOCC1)C2=O` yielded an MIC greater than 64 µg/mL.

What follows are compounds tested on Haemophilus influenzae (assay: Antimicrobial activity against LS2 Efflux knock-out Haemophilus influenzae).
Type: functional
Compound `CCCCCCCCC/C(NC(C)CCCN(CC)CC)=C1/C(=O)N2[C@@H](C(C)(C)C)OC[C@]2(C(=O)OC)C1=O` (stereo not given in full) has an MIC greater than 64 µg/mL. `CCOC(=O)[C@]12CO[C@H](C(C)(C)C)N1C(=O)/C(=C(/CC13CC4CC(CC(C4)C1)C3)NC(C)CCCN(CC)CC)C2=O` (stereo not given in full) was tested, and the MIC was 16 µg/mL (≈ 27.3 µM). `CCOC(=O)[C@]12CO[C@H](C(C)(C)C)N1C(=O)/C(=C(/CC13CC4CC(CC(C4)C1)C3)NCCCN1CCOCC1)C2=O` was tested, and the MIC was 8 µg/mL (≈ 14 µM).

These compounds were tested on Escherichia coli (assay: Antimicrobial activity against Escherichia coli ATCC 25922).
Type: functional
In the case of `CCCCCCCCC/C(NC(C)CCCN(CC)CC)=C1/C(=O)N2[C@@H](C(C)(C)C)OC[C@]2(C(=O)OC)C1=O` (stereo not given in full), the MIC was greater than 32 µg/mL. `CCOC(=O)[C@]12CO[C@H](C(C)(C)C)N1C(=O)/C(=C(/CC13CC4CC(CC(C4)C1)C3)NC(C)CCCN(CC)CC)C2=O` (stereo not given in full) gave an MIC greater than 32 µg/mL. `CCOC(=O)[C@]12CO[C@H](C(C)(C)C)N1C(=O)/C(=C(/CC13CC4CC(CC(C4)C1)C3)NCCCN1CCOCC1)C2=O` showed an MIC greater than 32 µg/mL.

The compounds below were run on Escherichia coli (assay: Antimicrobial activity against Escherichia coli 50).
Type: functional
Work on `CCCCCCCCC/C(NC(C)CCCN(CC)CC)=C1/C(=O)N2[C@@H](C(C)(C)C)OC[C@]2(C(=O)OC)C1=O` (stereo not given in full) yielded an MIC greater than 32 µg/mL. `CCOC(=O)[C@]12CO[C@H](C(C)(C)C)N1C(=O)/C(=C(/CC13CC4CC(CC(C4)C1)C3)NC(C)CCCN(CC)CC)C2=O` (stereo not given in full) gave an MIC greater than 32 µg/mL. `CCOC(=O)[C@]12CO[C@H](C(C)(C)C)N1C(=O)/C(=C(/CC13CC4CC(CC(C4)C1)C3)NCCCN1CCOCC1)C2=O` gave an MIC greater than 32 µg/mL.

The compounds below were run on Pseudomonas aeruginosa (assay: Antimicrobial activity against Pseudomonas aeruginosa ATCC 27853).
Type: functional
`CCCCCCCCC/C(NC(C)CCCN(CC)CC)=C1/C(=O)N2[C@@H](C(C)(C)C)OC[C@]2(C(=O)OC)C1=O` (stereo not given in full) gave an MIC greater than 32 µg/mL. `CCOC(=O)[C@]12CO[C@H](C(C)(C)C)N1C(=O)/C(=C(/CC13CC4CC(CC(C4)C1)C3)NC(C)CCCN(CC)CC)C2=O` (stereo not given in full) was tested, and the MIC was greater than 32 µg/mL. Compound `CCOC(=O)[C@]12CO[C@H](C(C)(C)C)N1C(=O)/C(=C(/CC13CC4CC(CC(C4)C1)C3)NCCCN1CCOCC1)C2=O` has an MIC greater than 32 µg/mL.

Each compound was assayed on Escherichia coli (assay: Antimicrobial activity against Escherichia coli 49).
Type: functional
Compound `CCCCCCCCC/C(NC(C)CCCN(CC)CC)=C1/C(=O)N2[C@@H](C(C)(C)C)OC[C@]2(C(=O)OC)C1=O` (stereo not given in full) has an MIC greater than 32 µg/mL. `CCOC(=O)[C@]12CO[C@H](C(C)(C)C)N1C(=O)/C(=C(/CC13CC4CC(CC(C4)C1)C3)NC(C)CCCN(CC)CC)C2=O` (stereo not given in full) showed an MIC greater than 32 µg/mL. Work on `CCOC(=O)[C@]12CO[C@H](C(C)(C)C)N1C(=O)/C(=C(/CC13CC4CC(CC(C4)C1)C3)NCCCN1CCOCC1)C2=O` yielded an MIC greater than 32 µg/mL.
